According to patent publication US8449898B2 (priority 2007, dated 2013):
Like-named read-outs stand apart in the source and are kept apart here.

Columns and labels:
[1] = system: Pseudoperonospora cubensis (the causal agent of cucumber downy mildew); assay: Test B: cucumber downy mildew, preventive spray on cucumber seedlings; format: in vivo; settings: Pseudoperonospora cubensis
[2] = system: Phytophthora infestans (the causal agent of tomato late blight); assay: whole plant or invertebrate; format: in vivo; settings: Phytophthora infestans

## Cc1cc(C(F)(F)F)nn1CC(=O)N1CCC(c2nc(C3=NOC(c4ccccc4)C3)cs2)CC1 (centres unmarked) [Compound 1, 4-[4-[4,5-dihydro-5-phenyl-3-isoxazolyl]-2-thiazolyl]-1-[[5-methyl-3-(trifluoromethyl)-1H-pyrazol-1-yl]acetyl]piperidine]
[1]; Compound 1 alone 0.025 ppm, Table H evaluation set, rating 100 = 100% disease control, read-out: CDM Obsd
  pest or weed control at 0.025 ppm: 33%
[1]; Compound 1 alone 0.025 ppm, Table I evaluation set, read-out: CDM Obsd
  pest or weed control at 0.025 ppm: 47%
[1]; Compound 1 alone 0.025 ppm, Table J evaluation set, read-out: CDM Obsd
  pest or weed control at 0.025 ppm: 47%
[1]; Compound 1 alone 0.025 ppm, Table K evaluation set, read-out: CDM Obsd
  pest or weed control at 0.025 ppm: 76%
[1]; Compound 1 alone 0.025 ppm, Table L evaluation set, read-out: CDM Obsd
  pest or weed control at 0.025 ppm: 51%
[1]; Compound 1 alone 0.05 ppm, Table H evaluation set, read-out: CDM Obsd
  pest or weed control at 0.05 ppm: 40%
[1]; Compound 1 alone 0.05 ppm, Table I evaluation set, read-out: CDM Obsd
  pest or weed control at 0.05 ppm: 47%
[1]; Compound 1 alone 0.05 ppm, Table J evaluation set, read-out: CDM Obsd
  pest or weed control at 0.05 ppm: 47%
[1]; Compound 1 alone 0.05 ppm, Table K evaluation set, read-out: CDM Obsd
  pest or weed control at 0.05 ppm: 92%
[1]; Compound 1 alone 0.05 ppm, Table L evaluation set, read-out: CDM Obsd
  pest or weed control at 0.05 ppm: 51%
[1]; Compound 1 alone 0.075 ppm, Table H evaluation set, read-out: CDM Obsd
  pest or weed control at 0.075 ppm: 40%
[1]; Compound 1 alone 0.075 ppm, Table I evaluation set, read-out: CDM Obsd
  pest or weed control at 0.075 ppm: 47%
[1]; Compound 1 alone 0.075 ppm, Table J evaluation set, read-out: CDM Obsd
  pest or weed control at 0.075 ppm: 47%
[1]; Compound 1 alone 0.075 ppm, Table K evaluation set, read-out: CDM Obsd
  pest or weed control at 0.075 ppm: 89%
[1]; Compound 1 alone 0.075 ppm, Table L evaluation set, read-out: CDM Obsd
  pest or weed control at 0.075 ppm: 51%
[1]; Compound 1 alone 0.1 ppm, Table H evaluation set, read-out: CDM Obsd
  pest or weed control at 0.1 ppm: 76%
[1]; Compound 1 alone 0.1 ppm, Table I evaluation set, read-out: CDM Obsd
  pest or weed control at 0.1 ppm: 57%
[1]; Compound 1 alone 0.1 ppm, Table J evaluation set, read-out: CDM Obsd
  pest or weed control at 0.1 ppm: 47%
[1]; Compound 1 alone 0.1 ppm, Table K evaluation set, read-out: CDM Obsd
  pest or weed control at 0.1 ppm: 98%
[1]; Compound 1 alone 0.1 ppm, Table L evaluation set, read-out: CDM Obsd
  pest or weed control at 0.1 ppm: 98%
[1]; Compound 1 alone 0.125 ppm, Table H evaluation set, read-out: CDM Obsd
  pest or weed control at 0.125 ppm: 81%
[1]; Compound 1 alone 0.125 ppm, Table I evaluation set, read-out: CDM Obsd
  pest or weed control at 0.125 ppm: 57%
[1]; Compound 1 alone 0.125 ppm, Table J evaluation set, read-out: CDM Obsd
  pest or weed control at 0.125 ppm: 47%
[1]; Compound 1 alone 0.125 ppm, Table K evaluation set, read-out: CDM Obsd
  pest or weed control at 0.125 ppm: 99%
[1]; Compound 1 alone 0.125 ppm, Table L evaluation set, read-out: CDM Obsd
  pest or weed control at 0.125 ppm: 81%
[1]; Table A, Compound 1 alone 0.05 ppm, read-out: CDM Obsd (disease control rating)
  pest or weed control at 0.05 ppm: 88%
[1]; Table A, Compound 1 alone 0.1 ppm, read-out: CDM Obsd (disease control rating)
  pest or weed control at 0.1 ppm: 95%
[1]; Table A, Compound 1 alone 0.15 ppm, read-out: CDM Obsd (disease control rating)
  pest or weed control at 0.15 ppm: 100%
[1]; Table A, Compound 1 alone 0.2 ppm, read-out: CDM Obsd (disease control rating)
  pest or weed control at 0.2 ppm: 100%
[1]; Table A, Compound 1 alone 1 ppm, read-out: CDM Obsd (disease control rating)
  pest or weed control at 1 ppm: 100%
[1]; Table B, Compound 1 alone 0.05 ppm, read-out: CDM Obsd (disease control rating)
  pest or weed control at 0.05 ppm: 64%
[1]; Table B, Compound 1 alone 0.1 ppm, read-out: CDM Obsd (disease control rating)
  pest or weed control at 0.1 ppm: 86%
[1]; Table B, Compound 1 alone 0.15 ppm, read-out: CDM Obsd (disease control rating)
  pest or weed control at 0.15 ppm: 85%
[1]; Table B, Compound 1 alone 0.2 ppm, read-out: CDM Obsd (disease control rating)
  pest or weed control at 0.2 ppm: 92%
[1]; Table B, Compound 1 alone 1 ppm, read-out: CDM Obsd (disease control rating)
  pest or weed control at 1 ppm: 100%
[1]; Table C, Compound 1 alone 0.05 ppm, read-out: CDM Obsd (disease control rating)
  pest or weed control at 0.05 ppm: 77%
[1]; Table C, Compound 1 alone 0.1 ppm, read-out: CDM Obsd (disease control rating)
  pest or weed control at 0.1 ppm: 86%
[1]; Table C, Compound 1 alone 0.15 ppm, read-out: CDM Obsd (disease control rating)
  pest or weed control at 0.15 ppm: 95%
[1]; Table C, Compound 1 alone 0.2 ppm, read-out: CDM Obsd (disease control rating)
  pest or weed control at 0.2 ppm: 100%
[1]; Table C, Compound 1 alone 1 ppm, read-out: CDM Obsd (disease control rating)
  pest or weed control at 1 ppm: 100%
[1]; Table D, Compound 1 alone at 0.05 ppm, read-out: CDM Obsd
  pest or weed control at 0.05 ppm: 64%
[1]; Table D, Compound 1 alone at 0.1 ppm, read-out: CDM Obsd
  pest or weed control at 0.1 ppm: 77%
[1]; Table D, Compound 1 alone at 0.15 ppm, read-out: CDM Obsd
  pest or weed control at 0.15 ppm: 86%
[1]; Table D, Compound 1 alone at 0.2 ppm, read-out: CDM Obsd
  pest or weed control at 0.2 ppm: 93%
[1]; Table D, Compound 1 alone at 1 ppm, read-out: CDM Obsd
  pest or weed control at 1 ppm: 100%
[1]; Table F, Compound 1 alone at 0.025 ppm, read-out: CDM Obsd
  pest or weed control at 0.025 ppm: 40%
[1]; Table F, Compound 1 alone at 0.05 ppm, read-out: CDM Obsd
  pest or weed control at 0.05 ppm: 68%
[1]; Table F, Compound 1 alone at 0.075 ppm, read-out: CDM Obsd
  pest or weed control at 0.075 ppm: 39%
[1]; Table F, Compound 1 alone at 0.1 ppm, read-out: CDM Obsd
  pest or weed control at 0.1 ppm: 47%
[1]; Table F, Compound 1 alone at 0.125 ppm, read-out: CDM Obsd
  pest or weed control at 0.125 ppm: 58%
[1]; Table G, Compound 1 alone at 0.025 ppm, read-out: CDM Obsd
  pest or weed control at 0.025 ppm: 26%
[1]; Table G, Compound 1 alone at 0.05 ppm, read-out: CDM Obsd
  pest or weed control at 0.05 ppm: 26%
[1]; Table G, Compound 1 alone at 0.075 ppm, read-out: CDM Obsd
  pest or weed control at 0.075 ppm: 47%
[1]; Table G, Compound 1 alone at 0.1 ppm, read-out: CDM Obsd
  pest or weed control at 0.1 ppm: 47%
[1]; Table G, Compound 1 alone at 0.125 ppm, read-out: CDM Obsd
  pest or weed control at 0.125 ppm: 68%
[2]; read-out: TLB Obsd (disease control rating), Table A, Compound 1 alone 0.05 ppm
  pest or weed control at 0.05 ppm: 34%
[2]; read-out: TLB Obsd (disease control rating), Table A, Compound 1 alone 0.1 ppm
  pest or weed control at 0.1 ppm: 78%
[2]; read-out: TLB Obsd (disease control rating), Table A, Compound 1 alone 0.15 ppm
  pest or weed control at 0.15 ppm: 97%
[2]; read-out: TLB Obsd (disease control rating), Table A, Compound 1 alone 0.2 ppm
  pest or weed control at 0.2 ppm: 94%
[2]; read-out: TLB Obsd (disease control rating), Table A, Compound 1 alone 1 ppm
  pest or weed control at 1 ppm: 100%
[2]; read-out: TLB Obsd (disease control rating), Table B, Compound 1 alone 0.05 ppm
  pest or weed control at 0.05 ppm: 26%
[2]; read-out: TLB Obsd (disease control rating), Table B, Compound 1 alone 0.1 ppm
  pest or weed control at 0.1 ppm: 53%
[2]; read-out: TLB Obsd (disease control rating), Table B, Compound 1 alone 0.15 ppm
  pest or weed control at 0.15 ppm: 59%
[2]; read-out: TLB Obsd (disease control rating), Table B, Compound 1 alone 0.2 ppm
  pest or weed control at 0.2 ppm: 56%
[2]; read-out: TLB Obsd (disease control rating), Table B, Compound 1 alone 1 ppm
  pest or weed control at 1 ppm: 100%
[2]; read-out: TLB Obsd (disease control rating), Table C, Compound 1 alone 0.05 ppm
  pest or weed control at 0.05 ppm: 17%
[2]; read-out: TLB Obsd (disease control rating), Table C, Compound 1 alone 0.1 ppm
  pest or weed control at 0.1 ppm: 17%
[2]; read-out: TLB Obsd (disease control rating), Table C, Compound 1 alone 0.15 ppm
  pest or weed control at 0.15 ppm: 57%
[2]; read-out: TLB Obsd (disease control rating), Table C, Compound 1 alone 0.2 ppm
  pest or weed control at 0.2 ppm: 51%
[2]; read-out: TLB Obsd (disease control rating), Table C, Compound 1 alone 1 ppm
  pest or weed control at 1 ppm: 99%
[2]; read-out: TLB Obsd, Table D, Compound 1 alone at 0.05 ppm
  pest or weed control at 0.05 ppm: 32%
[2]; read-out: TLB Obsd, Table D, Compound 1 alone at 0.1 ppm
  pest or weed control at 0.1 ppm: 52%
[2]; read-out: TLB Obsd, Table D, Compound 1 alone at 0.15 ppm
  pest or weed control at 0.15 ppm: 90%
[2]; read-out: TLB Obsd, Table D, Compound 1 alone at 0.2 ppm
  pest or weed control at 0.2 ppm: 67%
[2]; read-out: TLB Obsd, Table D, Compound 1 alone at 1 ppm
  pest or weed control at 1 ppm: 100%
[2]; read-out: TLB Obsd, Table E, Compound 1 alone at 0.05 ppm
  pest or weed control at 0.05 ppm: 33%
[2]; read-out: TLB Obsd, Table E, Compound 1 alone at 0.1 ppm
  pest or weed control at 0.1 ppm: 75%
[2]; read-out: TLB Obsd, Table E, Compound 1 alone at 0.15 ppm
  pest or weed control at 0.15 ppm: 92%
[2]; read-out: TLB Obsd, Table E, Compound 1 alone at 0.2 ppm
  pest or weed control at 0.2 ppm: 90%
[2]; read-out: TLB Obsd, Table E, Compound 1 alone at 1 ppm
  pest or weed control at 1 ppm: 100%
